Where “and” joins values, the source holds several entries; their conditions need not be identical. Identical values can stand only once. Like-named read-outs stand apart in the source and are kept apart here.
What was measured:
[1] = Oral dose PK of NPT2042 in dog (AUC for absolute bioavailability); format: in vivo
Experimental: (§1) Assays were performed to determine absolute bioavailability of NPT2042 in two species: dog and rat. The calculation of absolute bioavailability depends on four inputs: the areas under the curves (AUC) for oral and IV, and the oral and IV doses.
Testing was conducted to determine AUCs for an oral dose in dog.
Two dogs were each dosed 30 mg/kg NPT2042 orally, on two different days.

[2] = IV bolus PK of NPT-2042 in dog; format: in vivo
Experimental: as §1
Testing was conducted to determine AUC for an IV dose in dog.
The same two dogs were each dosed 2042 IV at 10 mg/kg.
Table 8 provides Noncompartmental Parameters for NPT-2042 for 10 mg/kg Bolus Dosing of NPT-2042 in Dogs (n=2).

[3] = Oral dose PK of NPT-2042 in rat; format: in vivo
Experimental: as §1
Testing was conducted to determine AUCs for an oral dose in rat.

Rat Microsomes = assay: Metabolite screening of NPT-2042 in rat microsomes; format: in vitro ADME; settings: NPT-2042 10 uM, microsomes 1 mg/mL
Experimental: (§2) Incubation of Test Compound in Microsomes • 1. Compound final concentration: 10 uM. • 2. Microsomes concentration 1 mg/mL. • 3. Incubate for 1 hour, with an NADPH regenerating system. • 4. 0.5 mL of incubation mixture at 0 min and 1 hour, mixed with 0.5 mL of acetonitrile. • 5. Vortex, and centrifuge at 13200 rpm for 10 min. • 6. Supernatant was transferred to a clean vial for LCMS analysis NADPH regenerating system (cofactor; consisting of NADP [0.340 mg/mL], G6P [1.56 mg/mL], and G6PDH [0.4 U/mL] solutions) LC-MS/MS Method: • HPLC Column: Agilent, Polaris 3 […], 150×2.0 mm (S/N: 533819), made in Netherlands. • Guard Column: Agilent, MonoChrom 3 C18 MetaGuard, 10×2.0 mm (S/N: 556145) • Column temperature: 40° C. • Mobile Phase A: 5 mM ammonium format in water (Optima) • Mobile Phase B: acetonitrile (Optima) • Flow rate: 0.2 mL/min • Gradient (Table on right) • MS: Thermo Q Exactive Plus.

Dog Microsomes = assay: Metabolite screening of NPT-2042 in dog microsomes; format: in vitro ADME; settings: NPT-2042 10 uM, microsomes 1 mg/mL
Experimental: as §2

Microsomes = assay: Proposed metabolite structures and biotransformation pathways (rat, dog, human microsomes); format: in vitro ADME; settings: rat, dog, human microsomes, 10 uM, 1 hour
Experimental: Incubation of Test Compound in Microsomes • 1. Compound final concentration: 10 uM. • 2. Microsomes concentration 1 mg/mL. • 3. Incubate for 1 hour, with an NADPH regenerating system. • 4. 0.5 mL of incubation mixture at 0 min and 1 hour, mixed with 0.5 mL of acetonitrile. • 5. Vortex, and centrifuge at 13200 rpm for 10 min. • 6. Supernatant was transferred to a clean vial for LCMS analysis NADPH regenerating system (cofactor; consisting of NADP [0.340 mg/mL], G6P [1.56 mg/mL], and G6PDH [0.4 U/mL] solutions)
LC-MS/MS Method: • HPLC Column: Agilent, Polaris 3 C18-A, 150×2.0 mm (S/N: 533819), made in Netherlands. • Guard Column: Agilent, MonoChrom 3 C18 MetaGuard, 10×2.0 mm (S/N: 556145) • Column temperature: 40° C. • Mobile Phase A: 5 mM ammonium format in water (Optima) • Mobile Phase B: acetonitrile (Optima) • Flow rate: 0.2 mL/min • Gradient (Table on right) • MS: Thermo Q Exactive Plus.
Summary of Proposed Metabolite Structures and Biotransformation Pathway

[4] = NPT2042, dog, oral 30 mg/kg, animals D0001, D0601, Mean, 30 mg/kg
[5] = NPT2042, dog, oral 30 mg/kg, animals D0001, D0601, Mean, 30 mg/kg, mean
[6] = dog, in vivo, po, 30 mg/kg, NPT2042, dog, oral 30 mg/kg, animals D0001, D0601, Mean
[7] = NPT-2042, dog, IV bolus 10 mg/kg, animals 1201A, 1501A, Mean, 10 mg/kg
[8] = plasma, NPT-2042, rat, oral 30 mg/kg
[9] = rat, oral, dose column 30 mg/kg, individual rats and Mean (N=3)
[10] = rat, oral, dose column 30 mg/kg, individual rats and Mean (N=3), mean
[11] = 1 hour, NADPH regenerating system

`CCCCNc1cc(C(=O)N(Cc2ccccc2)Cc2ccccc2)cc(S(N)(=O)=O)c1Oc1ccccc1` [NPT-2042, N,N-Dibenzyl 3-Aminosulfonyl-5-butylamino-4-phenoxybenzamide] showed an AUCinf [1, 4] of 1.52 µg·h/mL, an AUClast [1, 4] of 1.45 µg·h/mL and a CL/F [1, 4] of 19.7 L/h/kg. The Cmax [1, 4] was 0.153 µg/mL, the t½ [1, 4] was 4.72 h and the AUCinf [1, 5] was 1.44 µg·h/mL. The AUClast [1, 5] was 1.39 µg·h/mL, the CL/F [1, 5] was 20.8 L/h/kg and the Cmax [1, 5] was 0.152 µg/mL. For the same compound, the t½ [1, 5] was 4.16 h, the AUC(0-inf) [1, 6] was 1.36 µg·h/mL and the AUC(0-t) [1, 6] was 1.34 µg·h/mL. For the same compound, the CL/F ([1]; dog, in vivo, po, 30 mg/kg, NPT2042, dog, oral 30 mg/kg, animals D0001, D0601, Mean, read-out: CL/F (converted)) was 22 L/h/kg, the Cmax ([1]; dog, in vivo, po, 30 mg/kg, NPT2042, dog, oral 30 mg/kg, animals D0001, D0601, Mean, read-out: Cmax) was 0.151 µg/mL and the Vd/F ([1]; dog, in vivo, po, 30 mg/kg, NPT2042, dog, oral 30 mg/kg, animals D0001, D0601, Mean, read-out: Vz/F) was 115 L/kg. For the same compound, the half-life ([1]; dog, in vivo, po, 30 mg/kg, NPT2042, dog, oral 30 mg/kg, animals D0001, D0601, Mean, read-out: t½ (converted)) was 3.61 h, the “Absolute bioavailability (AUCpo/AUCiv)*(Doseiv/Dosepo)” value ([1]; dog, oral 30 mg/kg vs IV 10 mg/kg, as fraction) was 0.0509 and the Tmax ([1]; in vivo, NPT2042, dog, oral 30 mg/kg, animals D0001, D0601, Mean) was 6 h. For the same compound, the bioavailability ([1]; in vivo, dog, oral 30 mg/kg vs IV 10 mg/kg) was 5.1%, the “C0 (back-extrapolated concentration)” value [2, 7] was 5.68 µg/mL and 6.44 µg/mL and the “CL (total body clearance)” value [2, 7] was 1.17 L/h/kg and 0.971 L/h/kg. For the same compound, the Tmax [2, 7] was 4.98 min, the “Vz (volume of distribution)” value [2, 7] was 6.44 L/kg and 6.54 L/kg and the “t½ (terminal-phase half-life)” value [2, 7] was 3.82 h and 4.67 h. The “Plasma NPT-2042 concentrations (in words)” value ([2]; dog, IV bolus 10 mg/kg) was “high and still quantifiable at 24 hours after dosing”, the Diuresis ([2]; dog, IV bolus 10 mg/kg NPT-2042) was “lack of diuresis” and the “Decay profile after bolus dosing” value ([2]; dog, IV bolus 10 mg/kg, log-linear plots) was “multi-exponential decay”. The AUC(0-inf) ([2]; dog, plasma, iv, 10 mg/kg, NPT-2042, dog, IV bolus 10 mg/kg, animals 1201A, 1501A, Mean) was 8.56 µg·h/mL, the C0 ([2]; dog, plasma, iv, 10 mg/kg, NPT-2042, dog, IV bolus 10 mg/kg, animals 1201A, 1501A, Mean, read-out: C0 (back-extrapolated concentration)) was 6.06 µg/mL and the clearance ([2]; dog, plasma, iv, 10 mg/kg, NPT-2042, dog, IV bolus 10 mg/kg, animals 1201A, 1501A, Mean, read-out: CL (total body clearance) (converted)) was 1.07 L/h/kg. For the same compound, the Cmax ([2]; dog, plasma, iv, 10 mg/kg, NPT-2042, dog, IV bolus 10 mg/kg, animals 1201A, 1501A, Mean, read-out: Cmax) was 5.21 µg/mL, the Tmax ([2]; dog, plasma, iv, 10 mg/kg, NPT-2042, dog, IV bolus 10 mg/kg, animals 1201A, 1501A, Mean, read-out: Tmax) was 4.8 min and the Vd ([2]; dog, plasma, iv, 10 mg/kg, NPT-2042, dog, IV bolus 10 mg/kg, animals 1201A, 1501A, Mean, read-out: Vz (volume of distribution)) was 6.49 L/kg. The half-life ([2]; dog, plasma, iv, 10 mg/kg, NPT-2042, dog, IV bolus 10 mg/kg, animals 1201A, 1501A, Mean, read-out: t½ (terminal-phase half-life) (converted)) was 4.25 h, the concentration at 0.08 h ([2]; dog, plasma, iv, 10 mg/kg, dog, IV bolus 10 mg/kg, animals 1201A, 1501A, Mean, read-out: Plasma NPT-2042 concentration, Time 0.08 h) was 5.56 µg/mL and the concentration at 1 h ([2]; dog, plasma, iv, 10 mg/kg, dog, IV bolus 10 mg/kg, animals 1201A, 1501A, Mean, read-out: Plasma NPT-2042 concentration, Time 1.00 h) was 2.24 µg/mL. The concentration at 2 h ([2]; dog, plasma, iv, 10 mg/kg, dog, IV bolus 10 mg/kg, animals 1201A, 1501A, Mean, read-out: Plasma NPT-2042 concentration, Time 2.00 h) was 1.23 µg/mL, the concentration at 4 h ([2]; dog, plasma, iv, 10 mg/kg, dog, IV bolus 10 mg/kg, animals 1201A, 1501A, Mean, read-out: Plasma NPT-2042 concentration, Time 4.00 h) was 0.688 µg/mL and the concentration at 6 h ([2]; dog, plasma, iv, 10 mg/kg, dog, IV bolus 10 mg/kg, animals 1201A, 1501A, Mean, read-out: Plasma NPT-2042 concentration, Time 6.00 h) was 0.326 µg/mL. The concentration at 8 h ([2]; dog, plasma, iv, 10 mg/kg, dog, IV bolus 10 mg/kg, animals 1201A, 1501A, Mean, read-out: Plasma NPT-2042 concentration, Time 8.00 h) was 0.182 µg/mL, the “CL as fraction of hepatic blood flow” value ([2]; dog, hepatic blood flow about 1.5 L/h/kg) was “about ⅔” and the half-life ([3]; in vivo, NPT-2042, rat, oral 30 mg/kg, read-out: t½ (converted)) was 2.61 h. It also gave a bioavailability ([3]; in vivo, rat, oral 30 mg/kg vs IV 10 mg/kg, read-out: Fabs (%), absolute bioavailability) of 0.34%, an AUC(0-inf) [3, 8] of 0.0354 µg·h/mL and a Cmax [3, 8] of 0.00456 µg/mL. It also gave a Tmax [3, 8] of 4 h, a concentration at 0.5 h ([3]; rat, in vivo, oral, 30 mg/kg, rat, oral, dose column 30 mg/kg, individual rats and Mean (N=3), read-out: NPT-2042 concentration, Time 0.50 h) of 0.00201 µg/mL and a concentration at 2 h ([3]; rat, in vivo, oral, 30 mg/kg, rat, oral, dose column 30 mg/kg, individual rats and Mean (N=3), read-out: NPT-2042 concentration, Time 2.00 h) of 0.004 µg/mL. The concentration at 4 h ([3]; rat, in vivo, oral, 30 mg/kg, rat, oral, dose column 30 mg/kg, individual rats and Mean (N=3), read-out: NPT-2042 concentration, Time 4.00 h) was 0.00352 µg/mL, the concentration at 6 h ([3]; rat, in vivo, oral, 30 mg/kg, rat, oral, dose column 30 mg/kg, individual rats and Mean (N=3), read-out: NPT-2042 concentration, Time 6.00 h) was 0.00399 µg/mL and the concentration at 12 h ([3]; rat, in vivo, oral, 30 mg/kg, rat, oral, dose column 30 mg/kg, individual rats and Mean (N=3), read-out: NPT-2042 concentration, Time 12.00 h) was 0.00078 µg/mL. For the same compound, the “Fabs (ratio), absolute bioavailability” value ([3]; rat, oral 30 mg/kg vs IV 10 mg/kg) was 0.0034, the “NPT-2042 concentration, Time 0.50 h” value [3, 9] was 1.29 ng/mL and 1.67 ng/mL and the “NPT-2042 concentration, Time 1.00 h” value [3, 9] was 2.14 ng/mL and 4.70 ng/mL and 2.45 ng/mL. For the same compound, the “NPT-2042 concentration, Time 2.00 h” value [3, 9] was 2.88 ng/mL and 3.60 ng/mL, the “NPT-2042 concentration, Time 4.00 h” value [3, 9] was 5.42 ng/mL and 4.73 ng/mL and the “NPT-2042 concentration, Time 6.00 h” value [3, 9] was 2.49 ng/mL and 4.15 ng/mL. For the same compound, the “NPT-2042 concentration, Time 8.00 h” value [3, 9] was 1.57 ng/mL and 2.57 ng/mL and 3.20 ng/mL, the “NPT-2042 concentration, Time 12.00 h” value [3, 9] was 0.715 ng/mL and 0.731 ng/mL and the “NPT-2042 concentration, Time 0.50 h” value [3, 10] was 1.66 ng/mL. For the same compound, the “NPT-2042 concentration, Time 1.00 h” value [3, 10] was 3.10 ng/mL, the “NPT-2042 concentration, Time 2.00 h” value [3, 10] was 3.49 ng/mL and the “NPT-2042 concentration, Time 4.00 h” value [3, 10] was 4.56 ng/mL. The “NPT-2042 concentration, Time 6.00 h” value [3, 10] was 3.54 ng/mL, the “NPT-2042 concentration, Time 8.00 h” value [3, 10] was 2.45 ng/mL and the “NPT-2042 concentration, Time 12.00 h” value [3, 10] was 0.742 ng/mL. The “Rat Mic (MS Intensity)” value (Rat Microsomes; [11]) was 7.73E+07, the “Rat Mic (MS Intensity)” value (Rat Microsomes; T = 0) was 4.15E+08 and the “Dog Mic (MS Intensity)” value (Dog Microsomes; [11]) was 1.85E+08. The “Dog Mic (MS Intensity)” value (Dog Microsomes; T = 0) was 3.79E+08 and the Major biotransformation pathways (Microsomes) was “De-alkylation, Mono-oxidation, and Mono-oxidation and De-alkylation”.
